The results in this text go back to ChEMBL document CHEMBL5214892, “Antitumor potential of the protein phosphatase inhibitor, cantharidin, and selected derivatives” (Bioorg Med Chem, 2021).

SMILES strings stand for the structures. In brackets after ≈: the same amount, converted by molar mass. Bounds are passed on as bounds.

Data set [1] in a line: Inhibition of PP1 (unknown origin). The arrangement: species or system Homo sapiens.
Data set [2] is described as follows: Inhibition of bovine brain PP2A assessed as dephosphorylation of substrate using P32 labelled peptide DLDVPIPGRFDRRVSVAAE as substrate by radiometric analysis. Further details: species or system Bos taurus.
The nature of data set [3]: Inhibition of rabbit liver PP2C assessed as dephosphorylation of substrate using P32 labelled peptide as substrate by radiometric analysis. Further details: species or system Oryctolagus cuniculus.
Data set [4] is described as follows: Toxicity in mouse assessed as lethal dose administered intraperitoneally. The following applies: in vivo, route ip.
Data set [5] relates to HepG2. The data set is described as follows: Anticancer activity against human HepG2 cells assessed as cell growth inhibition measured after 72 hrs by MTT assay. The format is functional, cell-based. The following applies: HepG2, 72 h. (In general: Tetrazolium assays rely on reduction of a dye to a coloured formazan, in cell work by metabolically active cells.)
In a further data set the test system is HL-60. The data set is described as follows: Anticancer activity against human HL-60 cells assessed as cell growth inhibition measured after 72 hrs by MTT assay. The following applies: HL-60, 72 h. The format is functional, cell-based.
The next data set concerns KB 3-1. The data set is described as follows: Anticancer activity against human KB 3-1 cells assessed as cell growth inhibition measured after 72 hrs by MTT assay. The format is functional, cell-based. Particulars: KB 3-1, 72 h.
For another data set, the species on record is Homo sapiens. Description: Anticancer activity against human Liver cancer cell assessed as cell growth inhibition. The format is functional.
Data set [6] is described as follows: Anticancer activity against human oral cancer cell assessed as cell growth inhibition. It is filed as functional, cell-based.
The nature of data set [7]: Anticancer activity against human leukaemia cell line assessed as cell growth inhibition. The format is functional, cell-based.
For data set [8], the system named is HepG2. The data set is described as follows: Anticancer activity against human HepG2 cells assessed as cell growth inhibition incubated for 2 days by MTT assay. It is filed as functional, cell-based. Particulars: HepG2, 48 h.
The subject of data set [9] is Hep 3B2. Description: Anticancer activity against human Hep3B cells assessed as cell growth inhibition incubated for 48 hrs by MTT assay. The format is functional, cell-based.
A short description of data set [10]: Inhibition of PP (unknown origin). The arrangement: species or system Homo sapiens.
The next data set has as its system SMMC-7721. Description: Anticancer activity against human SMMC-7721 cell assessed as cell growth inhibition measured after 24 to 48 hrs by SRB colorimetry assay. It is filed as functional, cell-based. For orientation: In SRB staining, fixed cells bind dye roughly in proportion to their protein.
The subject of another data set is Bel-7402. The data set is described as follows: Anticancer activity against human Bel-7402 cell assessed as cell growth inhibition measured after 24 to 48 hrs by SRB colorimetry assay. The format is functional, cell-based.
Another data set has as its system Colon cancer cell line. The data set is described as follows: Anticancer activity against human Colon carcinoma cell assessed as cell growth inhibition. It is filed as functional, cell-based.
The next data set concerns HT-29. The data set is described as follows: Anticancer activity against human HT-29 cells assessed as cell growth inhibition measured after 72 hrs by MTT assay. It is filed as functional, cell-based. Particulars: HT-29, 72 h.
The subject of another data set is MCF7. Description: Anticancer activity against human MCF7 cells assessed as cell growth inhibition measured after 72 hrs by MTT assay. It is filed as functional, cell-based. The following applies: MCF7, 72 h.
The test system of another data set is A-431. Description: Anticancer activity against human A-431 cells assessed as cell growth inhibition measured after 72 hrs by MTT assay. The format is functional, cell-based. The following applies: A-431, 72 h.
Another data set concerns DU-145. Description: Anticancer activity against human DU-145 cells assessed as cell growth inhibition measured after 72 hrs by MTT assay. It is filed as functional, cell-based. Particulars: DU-145, 72 h.
A further data set deals with BE(2)-C. The data set is described as follows: Anticancer activity against human BE2C cells assessed as cell growth inhibition measured after 72 hrs by MTT assay. The format is functional, cell-based.
For another data set, the system named is MIA PaCa-2. Description: Anticancer activity against human MIA PaCa-2 cells assessed as cell growth inhibition measured after 72 hrs by MTT assay. It is filed as functional, cell-based. The following applies: MIA PaCa-2, 72 h.
Data set [11] has as its system Hep 3B2. The data set is described as follows: Anticancer activity against human Hep3B cells assessed as cell growth inhibition incubated for 48 hrs by MTS assay. It is filed as functional, cell-based.
A short description of data set [12]: Cytotoxicity against human Bone marrow cell assessed as cell growth inhibition by MTS assay. It is filed as toxicity, cell-based. Particulars: bone marrow cells.
In another data set the test system is Lung cancer cell line. The data set is described as follows: Anticancer activity against human Lung cancer cell line assessed as cell growth inhibition. The format is functional, cell-based.
The mark [13] stands for this setting: Homo sapiens, Liver cancer cell.

For `C[C@]1(C(=O)O)[C@@H]2CC[C@@H](O2)[C@@]1(C)C(=O)O`, the IC50 is 0.56 µM in data set [1]; 0.05 µM in data set [2]; more than 1000 µM in [3]; 218 µM in the data set on HepG2 [5]; 103 µM with HL-60; 79.2 µM with KB 3-1. In addition, the IC50 (in the data set listed under Homo sapiens (setting [13]); in data set [6]; in data set [7]) was more than 50 µM each time. The LD50 in data set [4] came out at 1.8 mg/kg.

Turning to `O=C(O)[C@@H]1[C@H](C(=O)O)[C@H]2CC[C@@H]1O2` [listing 1 of 2 here], the IC50 was 15 µM in the data set listed under Homo sapiens (liver cancer cell) and 15.4 µM in the data set with HepG2 [8].

Regarding `CN1C(=O)[C@@]2(C)[C@@H]3CC[C@@H](O3)[C@@]2(C)C1=O`, the IC50 in the data set on Hep 3B2 [9] is more than 2000 µM.

Take `O=C1OC[C@@H]2[C@H]1[C@H]1CC[C@@H]2O1`: the IC50 is 62.2 µM in [1]; 99.9 µM in [2]; more than 200 µM in the data set on HepG2 [5]; more than 200 µM in the data set on HL-60; 112 µM in the data set with KB 3-1.

For `C[C@@]12COC(=O)[C@]1(C)[C@H]1CC[C@@H]2O1`, the IC50 (in data set [1]; in data set [2]; in the data set on HepG2 [5]; with HL-60; with KB 3-1) was more than 200 µM each time.

With `C[C@@]12C(=O)OC(=O)[C@@H]1[C@H]1CC[C@@H]2O1`, the IC50 was 0.66 µM in data set [1], 0.12 µM in data set [2], more than 1000 µM in data set [3] and less than 1 µM in data set [10].

Take `O=C(O)[C@@H]1[C@H](C(=O)O)[C@H]2CC[C@@H]1O2` [listing 2 of 2 here]: the 50% inhibitory concentration (IC50) in the data set filed under Homo sapiens (setting [13]) is 12 µM; with SMMC-7721, 12.5 µM; in the data set on Bel-7402 it was 12.5 µM.

For the molecule `O=C(NCc1ccc(-c2ccccc2)cc1)C(CNC(=O)[C@H]1[C@@H](C(=O)O)[C@@H]2CC[C@H]1O2)Cc1ccco1` (stereo not given in full), the IC50 worked out at 0.015 µM in the data set with Colon cancer cell line; 0.015 µM with HT-29; 0.027 µM in the data set on MCF7; 0.045 µM with A-431; 0.026 µM with DU-145; 0.029 µM in the data set on BE(2)-C. In the data set on MIA PaCa-2, the 50% inhibitory concentration (IC50) was determined as 0.056 µM.

`C[C@@]12C(=O)N(c3ncc([N+](=O)[O-])s3)C(=O)[C@]1(C)[C@H]1CC[C@@H]2O1`: the IC50 in the data set listed under Homo sapiens (setting [13]) is less than 1 µM; with Hep 3B2 [9] it was 0.4 µM.

With `C[C@@]12C(=O)N(c3nc4ccc(OC(F)(F)F)cc4s3)C(=O)[C@]1(C)[C@H]1CC[C@@H]2O1` [CANTHARIDIMIDE], the IC50 in the data set listed under Homo sapiens (setting [13]) was 6.5 µM; with Hep 3B2 [11], 15.8 µM; in data set [12], more than 12.5 µg/mL.

`C[C@@]12C(=O)OC(=O)[C@]1(C)[C@H]1CC[C@@H]2O1` [CANTHARIDIN]: the IC50 in data set [1] is 0.47 µM; in data set [2] it was 0.04 µM; in [3], more than 1000 µM; in the data set on HepG2 [5], 19.1 µM; in the data set with HL-60 it was 2.7 µM; in the data set with KB 3-1, 2.7 µM. Also, the IC50 in the data set on Colon cancer cell line is 2 µM; in the data set filed under Homo sapiens (setting [13]) it was 2 µM; in the data set with Lung cancer cell line, 2 µM; in [6], 2 µM; in data set [7], 2 µM; in data set [12], 6.5 µg/mL (≈ 33.1 µM). In addition, the 50% lethal dose (LD50) in data set [4] was 1 mg/kg.

Take `O=C1OC(=O)C2C3CCC(O3)C12` (stereo not given) [DEMETHYL-CANTHARIDIN]: the IC50 in [1] was 1.98 µM; in data set [2] it was 0.37 µM; with HepG2 [5], 213 µM; in the data set with HL-60 it was 15.7 µM; in the data set on KB 3-1 it was 69.5 µM; in the data set on Colon cancer cell line, more than 15 µM. The IC50 (in the data set filed under Homo sapiens (setting [13]); in data set [6]; in data set [7]) was more than 15 µM throughout. The LD50 in data set [4] was 4 mg/kg.

Turning to `O=C(O)[C@@H]1[C@H](C(=O)O)[C@H]2CC[C@@H]1O2` [ENDOTHALL], the IC50 in data set [1] is 5 µM; in [2] it was 0.97 µM; in data set [3], more than 1000 µM; in data set [10], more than 0.9 µM. Besides, in [4], the LD50 is 14 mg/kg.

As a reminder, the IC50 is the concentration needed to halve the response being measured. One may read the LD50 as the dose at which mortality reaches 50%.
